# Biological target: Cruzipain (Trypanosoma cruzi, UniProt P25779)
# Experiment: Inhibition of epimastigote form of Trypanosoma cruzi Tulahuen 2 cruzain assessed as reduction in 7-amino-4-methylcoumarin release incubated for 20 mins folllowed by Z-FR-AMC substrate addition and measured up to 45 mins by fluorometric assay
# Sequence of Cruzipain (P25779 whole entry): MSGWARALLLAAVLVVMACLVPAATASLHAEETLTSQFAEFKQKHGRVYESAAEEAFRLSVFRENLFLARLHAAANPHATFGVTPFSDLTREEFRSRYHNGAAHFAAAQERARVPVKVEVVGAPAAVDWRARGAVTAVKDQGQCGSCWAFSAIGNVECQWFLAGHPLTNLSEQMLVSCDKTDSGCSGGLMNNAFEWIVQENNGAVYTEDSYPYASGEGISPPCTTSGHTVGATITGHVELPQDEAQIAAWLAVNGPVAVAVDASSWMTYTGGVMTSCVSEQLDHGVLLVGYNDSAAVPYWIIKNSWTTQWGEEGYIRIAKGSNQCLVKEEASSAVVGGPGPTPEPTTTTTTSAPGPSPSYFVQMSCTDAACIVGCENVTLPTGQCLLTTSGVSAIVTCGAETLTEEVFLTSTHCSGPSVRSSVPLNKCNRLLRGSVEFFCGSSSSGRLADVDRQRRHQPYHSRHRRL
row,Compound,IC50
1,COc1cccc(/C(C)=N/N=C(/N)S)c1,1470 µM
2,CC/C(=N\NC(N)=S)c1cccc([N+](=O)[O-])c1,0.753 µM
3,CC/C(=N\N=C(\N)S)c1cccc(Cl)c1,23.2 µM
4,CC/C(=N\N=C(\N)S)c1ccc(Cl)c(Cl)c1,0.0695 µM

# Further molecules by falling IC50, results first:
row,IC50,Compound
1,105 µM,NC(=S)N/N=C/c1cccc(Cl)c1
2,29.9 µM,C/C(=N\NC(N)=S)c1cccc(Cl)c1
3,7.6 µM,C/C(=N\NC(N)=S)c1ccc([N+](=O)[O-])cc1
4,0.147 µM,C/C(=N\N=C(\N)S)c1ccc(Cl)c(Cl)c1
5,0.0816 µM,N/C(S)=N/N=C/c1ccc(Cl)c(Cl)c1

# — ChEMBL document CHEMBL5143642, “Thiosemicarbazone derivatives: Evaluation as cruzipain inhibitors and molecular modeling study of complexes with cruzain” (Bioorg Med Chem, 2022)
